Measured values: PubChem BioAssay AID330 (DTP/NCI, 2004)
Where “and” joins values, the source holds several entries; their conditions need not be identical. Equal entries are not always repeated. Toxic doses and inconclusive results are not listed. Rule for the calls: active = survival T/C of 150% or more; inactive = T/C below 125% in these data.

Tested on: P388 leukemia ip, CD2F1 mice, survival T/C
Test: NCI In Vivo Anticancer Drug Screen. Data for tumor model P388 Leukemia (intraperitoneal) in CD2F1 (CDF1) mice
Conditions: endpoint: median survival time, higher = longer survival
Procedure, shortened: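 Mice carrying the transplanted tumor received test compound or vehicle. Survival was recorded in each group, and the value is the treated-group measurement divided by that of the vehicle-treated control group.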

[1] = dose: 100.0 mg/kg/injection, schedule: Q04DX002 (ip), vehicle: saline
[2] = dose: 200.0 mg/kg/injection, schedule: Q04DX002 (ip), vehicle: saline
[3] = dose: 400.0 mg/kg/injection, schedule: Q04DX002 (ip), vehicle: saline
[4] = dose: 100.0 mg/kg/injection, schedule: Q01DX001 (ip), vehicle: Klucel (hydroxypropylcellulose) (HPC)
[5] = dose: 200.0 mg/kg/injection, schedule: Q01DX001 (ip), vehicle: Klucel (hydroxypropylcellulose) (HPC)
[6] = dose: 25.0 mg/kg/injection, schedule: Q01DX009 (ip), vehicle: saline with Tween-80
[7] = dose: 50.0 mg/kg/injection, schedule: Q01DX009 (ip), vehicle: saline with Tween-80
[8] = dose: 100.0 mg/kg/injection, schedule: Q01DX009 (ip), vehicle: saline with Tween-80
[9] = dose: 100.0 mg/kg/injection, schedule: Q01DX001 (ip), vehicle: saline with Tween-80
[10] = dose: 50.0 mg/kg/injection, schedule: Q01DX005 (ip), vehicle: Klucel (hydroxypropylcellulose) (HPC)
[11] = dose: 100.0 mg/kg/injection, schedule: Q01DX005 (ip), vehicle: Klucel (hydroxypropylcellulose) (HPC)
[12] = dose: 200.0 mg/kg/injection, schedule: Q01DX005 (ip), vehicle: Klucel (hydroxypropylcellulose) (HPC)
[13] = dose: 25.0 mg/kg/injection, schedule: Q01DX001 (ip), vehicle: saline with Tween-80
[14] = dose: 50.0 mg/kg/injection, schedule: Q01DX001 (ip), vehicle: saline with Tween-80

Measured: T/C

NC1CCc2cc(O)c(O)cc2C1 (centres undefined)
inactive: [1] 108 % of control and 96 % of control | [2] 105 % of control and 109 % of control | [3] 109 % of control

c1ccc(-c2cnc3cccnc3n2)cc1
inactive: dose: 60.0 mg/kg/injection, schedule: Q01DX005 (ip), vehicle: Klucel (hydroxypropylcellulose) (HPC) 100 % of control | dose: 120.0 mg/kg/injection, schedule: Q01DX005 (ip), vehicle: Klucel (hydroxypropylcellulose) (HPC) 99 % of control

CCCCCCCCCCCCCCCC[N+](C)(CCO)Cc1ccccc1 (centres undefined)
inactive: dose: 6.25 mg/kg/injection, schedule: Q04DX002 (ip), vehicle: saline with Tween-80 112 % of control | dose: 12.5 mg/kg/injection, schedule: Q04DX002 (ip), vehicle: saline with Tween-80 116 % of control

CC(C)(C)C(=O)NNc1cccc(Cl)n1
inactive: dose: 50.0 mg/kg/injection, schedule: Q01DX001 (ip), vehicle: Klucel (hydroxypropylcellulose) (HPC) 109 % of control | [4] 98 % of control | [5] 100 % of control

COC(=O)C(Cl)c1ccc2c(c1)OCO2 (centres undefined)
inactive: [6] 100 % of control | [7] 90 % of control | [8] 95 % of control

CSCC1Cc2ccccc2N=C(c2ccccc2)O1 (centres undefined)
inactive: [9] 100 % of control | dose: 200.0 mg/kg/injection, schedule: Q01DX001 (ip), vehicle: saline with Tween-80 97 % of control | dose: 400.0 mg/kg/injection, schedule: Q01DX001 (ip), vehicle: saline with Tween-80 100 % of control

CCN(CC)C(=O)c1cccc(COc2ccc(N3C(N)=NC(N)=NC3(C)C)cc2Cl)c1
inactive: dose: 50.0 mg/kg/injection, schedule: Q01DX009 (ip), vehicle: saline sonified 90 % of control | dose: 50.0 mg/kg/injection, schedule: Q04DX003 (ip), vehicle: saline sonified 109 % of control | dose: 100.0 mg/kg/injection, schedule: Q01DX009 (ip), vehicle: saline sonified 109 % of control | dose: 100.0 mg/kg/injection, schedule: Q04DX003 (ip), vehicle: saline sonified 100 % of control

O=C(O)c1ccc[c]([Sb]2(=[O])[O]C(CO)C(C(O)C(O)C(=O)O)[O]2)c1 (centres undefined)
inactive: dose: 50.0 mg/kg/injection, schedule: Q01DX005 (ip), vehicle: saline 100 % of control | dose: 100.0 mg/kg/injection, schedule: Q01DX005 (ip), vehicle: saline 100 % of control | dose: 200.0 mg/kg/injection, schedule: Q01DX005 (ip), vehicle: saline 104 % of control

O=C(O)C(Cc1ccc(OC(=O)C(F)(F)F)cc1)NC(=O)C(F)(F)F (centres undefined)
inactive: dose: 25.0 mg/kg/injection, schedule: Q04DX003 (ip), vehicle: saline with Tween-80 95 % of control | dose: 50.0 mg/kg/injection, schedule: Q04DX003 (ip), vehicle: saline with Tween-80 100 % of control | dose: 100.0 mg/kg/injection, schedule: Q04DX003 (ip), vehicle: saline with Tween-80 100 % of control and 101 % of control | dose: 400.0 mg/kg/injection, schedule: Q04DX003 (ip), vehicle: saline with Tween-80 93 % of control

CC(C)=CCC/C(C)=C/CC/C(C)=C/CC/C(C)=C/CC/C(C)=C/CC/C(C)=C/CC/C(C)=C/CC/C(C)=C/CC/C(C)=C/CO
inactive: dose: 6.25 mg/kg/injection, schedule: Q01DX009 (ip), vehicle: saline + alcohol 98 % of control | dose: 12.5 mg/kg/injection, schedule: Q01DX009 (ip), vehicle: saline + alcohol 96 % of control | dose: 25.0 mg/kg/injection, schedule: Q01DX009 (ip), vehicle: saline + alcohol 99 % of control | dose: 50.0 mg/kg/injection, schedule: Q01DX009 (ip), vehicle: saline + alcohol 107 % of control | dose: 100.0 mg/kg/injection, schedule: Q01DX009 (ip), vehicle: saline + alcohol 96 % of control | dose: 200.0 mg/kg/injection, schedule: Q01DX009 (ip), vehicle: saline + alcohol 109 % of control

COc1cc(/C=C/c2ccc(O)c(OC)c2)cc(OC)c1
inactive: dose: 6.25 mg/kg/injection, schedule: Q01DX005 (ip), vehicle: Klucel (hydroxypropylcellulose) (HPC) 104 % of control | dose: 12.5 mg/kg/injection, schedule: Q01DX005 (ip), vehicle: Klucel (hydroxypropylcellulose) (HPC) 107 % of control | dose: 25.0 mg/kg/injection, schedule: Q01DX005 (ip), vehicle: Klucel (hydroxypropylcellulose) (HPC) 100 % of control | [10] 104 % of control and 108 % of control | [11] 95 % of control | [12] 88 % of control

CCN(CC)C(=O)C(F)Cl (centres undefined)
inactive: dose: 60.0 mg/kg/injection, schedule: Q01DX005 (ip), vehicle: saline with Tween-80 88 % of control | dose: 120.0 mg/kg/injection, schedule: Q01DX005 (ip), vehicle: saline with Tween-80 88 % of control | dose: 240.0 mg/kg/injection, schedule: Q01DX005 (ip), vehicle: saline with Tween-80 95 % of control

CCOP(=O)(O)OCC.CCOP(=O)(O)OCC.[O]=[V]
inactive: [4] 100 % of control | [5] 100 % of control

CC[C@@]1(CCC(=O)OC)CCC(=O)N2CC[C@@]3(C(=O)Nc4ccccc43)[C@@H]21
inactive: [10] 100 % of control | [11] 95 % of control | [12] 91 % of control

ClC1=C(Cl)N(C2=NCCC2)CC1
inactive: dose: 6.25 mg/kg/injection, schedule: Q01DX009 (ip), vehicle: Klucel (hydroxypropylcellulose) (HPC) 96 % of control | dose: 12.5 mg/kg/injection, schedule: Q01DX009 (ip), vehicle: Klucel (hydroxypropylcellulose) (HPC) 99 % of control | dose: 25.0 mg/kg/injection, schedule: Q01DX009 (ip), vehicle: Klucel (hydroxypropylcellulose) (HPC) 99 % of control

C=C1C2(CN)CCC(C2)C1(C)C (centres undefined)
inactive: dose: 6.25 mg/kg/injection, schedule: Q01DX009 (ip), vehicle: saline with Tween-80 101 % of control | dose: 12.5 mg/kg/injection, schedule: Q01DX001 (ip), vehicle: saline with Tween-80 96 % of control | dose: 12.5 mg/kg/injection, schedule: Q01DX009 (ip), vehicle: saline with Tween-80 98 % of control | [13] 101 % of control | [6] 98 % of control | [14] 99 % of control

Oc1c(CN2CCCC2)cc(Nc2nccc(/C=C/c3ccc(Cl)cc3)n2)cc1CN1CCCC1
inactive: dose: 6.25 mg/kg/injection, schedule: Q01DX009 (ip), vehicle: saline 106 % of control | dose: 12.5 mg/kg/injection, schedule: Q01DX009 (ip), vehicle: saline 106 % of control | dose: 25.0 mg/kg/injection, schedule: Q01DX009 (ip), vehicle: saline 110 % of control | dose: 50.0 mg/kg/injection, schedule: Q01DX009 (ip), vehicle: saline 114 % of control

Cc1ccc(NCCCC2CCCN3CCCCC23)c2c(=O)c3cc(O)ccc3sc12 (centres undefined)
inactive: [13] 99 % of control | [14] 98 % of control | [9] 100 % of control

COC(=O)C1=C(C(=O)OC)C(=Nc2ccccc2)c2ccccc2C1=O
inactive: dose: 100.0 mg/kg/injection, schedule: Q04DX002 (ip), vehicle: Klucel (hydroxypropylcellulose) (HPC) 100 % of control | dose: 200.0 mg/kg/injection, schedule: Q04DX002 (ip), vehicle: Klucel (hydroxypropylcellulose) (HPC) 100 % of control | dose: 400.0 mg/kg/injection, schedule: Q04DX002 (ip), vehicle: Klucel (hydroxypropylcellulose) (HPC) 110 % of control

CC(C)(C)C1(c2ccccc2)C(=O)c2ccccc2C1=O
inactive: [1] 100 % of control | [2] 97 % of control | [3] 101 % of control

CC(=O)OC1C=CC(O)N(C(C)=O)C1SC1C2CC3CC(C2)CC1C3 (centres undefined)
inactive: dose: 100.0 mg/kg/injection, schedule: Q04DX003 (ip), vehicle: saline 101 % of control | dose: 200.0 mg/kg/injection, schedule: Q04DX003 (ip), vehicle: saline 101 % of control | dose: 400.0 mg/kg/injection, schedule: Q04DX003 (ip), vehicle: saline 108 % of control

CCn1c2ccccc2c2cc(/C=N/N=C/c3ccc4c(c3)c3ccccc3n4CC)ccc21
inactive: dose: 3.12 mg/kg/injection, schedule: Q01DX005 (ip), vehicle: saline with Tween-80 93 % of control | dose: 6.25 mg/kg/injection, schedule: Q01DX005 (ip), vehicle: saline with Tween-80 90 % of control | dose: 12.5 mg/kg/injection, schedule: Q01DX005 (ip), vehicle: saline with Tween-80 88 % of control

CN(C)c1ccc(C=C2C(=O)NC(=O)NC2=O)cc1
inactive: [6] 118 % of control | [7] 113 % of control | [8] 116 % of control | dose: 200.0 mg/kg/injection, schedule: Q01DX009 (ip), vehicle: saline with Tween-80 106 % of control
